Results taken from article PMC4260745, “Modulation of A1 and A2B adenosine receptor activity: a new strategy to sensitise glioblastoma stem cells to chemotherapy” (Cell Death & Disease, 2014).

Target: T1, A2BAR (A2B adenosine receptor) (Homo sapiens, UniProt P29275)
T1 construct: gene ADORA2B
T1 sequence (P29275 1-332): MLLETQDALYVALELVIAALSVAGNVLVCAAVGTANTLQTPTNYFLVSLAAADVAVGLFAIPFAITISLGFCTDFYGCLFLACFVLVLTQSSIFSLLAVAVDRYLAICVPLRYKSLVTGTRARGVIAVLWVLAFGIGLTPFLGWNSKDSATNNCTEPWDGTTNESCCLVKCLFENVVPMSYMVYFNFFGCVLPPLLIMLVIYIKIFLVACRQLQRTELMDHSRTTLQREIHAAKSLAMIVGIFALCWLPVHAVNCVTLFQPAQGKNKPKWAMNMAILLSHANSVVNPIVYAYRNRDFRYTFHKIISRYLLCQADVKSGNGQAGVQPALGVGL
Assay: […]GTPγS binding, membranes of U343MG-derived CSCs (endogenous receptor)
Assay type: biochemical

With `N#Cc1c(N)nc(SCC(N)=O)c(C#N)c1-c1ccc(OCC2CC2)cc1` [BAY606583, 2-[6-Amino-3,5-dicyano-4-[4-(cyclopropylmethoxy)-phenyl]pyridin-2-ylsulfanyl]acetamide] the EC50 was 1.9 ± 0.2 nM.
